Source: ChEMBL document CHEMBL5113492, “Design, synthesis, and biological evalution of bifunctional inhibitors against Hsp90-HDAC6 interplay” (Eur J Med Chem, 2022)
pIC50: −log10 of the molar value. Active and inactive are the calls of the source. The calls are words filed in the database; no cut-off is given here.

What was measured:
[1] = test system: NCI-H1975; assay: Antiproliferative activity against human NCI-H1975 cells assessed as growth inhibition incubated upto 72 hrs by CellTiter96 Aqueous One Solution Cell Proliferation assay; type: functional
[2] = molecular target: Heat shock protein HSP 90-alpha (Homo sapiens, UniProt P07900); assay: Inhibition of His-tagged N-terminal recombinant HSP90alpha (unknown origin) expressed in Escherichia coli BL21 (DE3) incubated for 4 hrs by fluorescence polarization based microplate reader assay
[3] = molecular target: T1, Heat shock protein HSP90 (Homo sapiens) (UniProt P07900+P08238); assay: Inhibition of HSP90 in human NCI-H1975 cells assessed as downregulation of Her2 expression at 2 uM incubated for 24 hrs by western blot analysis; type: cell-based
[4] = molecular target: T1, Heat shock protein HSP90 (Homo sapiens); assay: Inhibition of HSP90 in human NCI-H1975 cells assessed as downregulation of EGFR expression at 2 uM incubated for 24 hrs by western blot analysis; type: cell-based
[5] = molecular target: T1, Heat shock protein HSP90 (Homo sapiens); assay: Inhibition of HSP90 in human NCI-H1975 cells assessed as downregulation of Met expression at 2 uM incubated for 24 hrs by western blot analysis; type: cell-based
[6] = molecular target: T1, Heat shock protein HSP90 (Homo sapiens); assay: Inhibition of HSP90 in human NCI-H1975 cells assessed as upregulation of HSP70 expression at 2 uM incubated for 24 hrs by western blot analysis; type: cell-based
[7] = molecular target: T2, Protein deacetylase HDAC6 (Homo sapiens) (UniProt Q9UBN7); assay: Inhibition of HDAC6 in human NCI-H1975 cells assessed as increase in acetylation of HSP90-Lys 294 residue at 2 uM incubated for 24 hrs by western blot analysis; type: cell-based
T2 sequence (whole entry): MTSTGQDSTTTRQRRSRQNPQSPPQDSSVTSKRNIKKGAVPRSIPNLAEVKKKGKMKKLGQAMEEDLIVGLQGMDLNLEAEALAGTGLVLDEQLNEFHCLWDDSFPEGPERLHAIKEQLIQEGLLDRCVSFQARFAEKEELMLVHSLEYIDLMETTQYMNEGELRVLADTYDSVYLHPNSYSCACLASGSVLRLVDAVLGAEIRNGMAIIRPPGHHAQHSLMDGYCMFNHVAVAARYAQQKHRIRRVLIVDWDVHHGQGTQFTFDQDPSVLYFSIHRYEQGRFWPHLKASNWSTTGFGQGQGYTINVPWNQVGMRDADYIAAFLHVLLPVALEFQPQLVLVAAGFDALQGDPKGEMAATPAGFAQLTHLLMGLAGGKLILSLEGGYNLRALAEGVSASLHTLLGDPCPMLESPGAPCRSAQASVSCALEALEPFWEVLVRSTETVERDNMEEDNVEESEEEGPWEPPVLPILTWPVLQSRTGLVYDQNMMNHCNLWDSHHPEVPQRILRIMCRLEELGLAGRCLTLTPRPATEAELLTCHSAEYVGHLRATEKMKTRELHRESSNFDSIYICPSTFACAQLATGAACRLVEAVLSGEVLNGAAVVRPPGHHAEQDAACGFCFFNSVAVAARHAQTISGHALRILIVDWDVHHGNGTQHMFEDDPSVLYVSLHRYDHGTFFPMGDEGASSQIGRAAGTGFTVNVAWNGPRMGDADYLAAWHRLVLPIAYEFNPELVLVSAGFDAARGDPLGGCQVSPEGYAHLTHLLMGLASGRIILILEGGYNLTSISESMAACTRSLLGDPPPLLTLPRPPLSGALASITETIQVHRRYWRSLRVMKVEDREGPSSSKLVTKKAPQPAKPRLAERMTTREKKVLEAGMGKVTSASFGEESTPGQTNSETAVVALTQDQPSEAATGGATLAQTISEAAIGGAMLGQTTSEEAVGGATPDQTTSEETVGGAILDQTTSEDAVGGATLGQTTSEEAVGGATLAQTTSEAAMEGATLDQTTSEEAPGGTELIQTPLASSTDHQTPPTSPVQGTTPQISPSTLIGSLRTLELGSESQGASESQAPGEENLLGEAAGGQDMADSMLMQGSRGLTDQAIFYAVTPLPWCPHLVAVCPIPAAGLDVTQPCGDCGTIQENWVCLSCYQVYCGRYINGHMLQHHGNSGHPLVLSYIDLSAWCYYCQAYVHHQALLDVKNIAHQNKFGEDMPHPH

[8] = molecular target: T1, Heat shock protein HSP90 (Homo sapiens); assay: Inhibition of HSP90 in human NCI-H1975 cells assessed as downregulation of Akt expression at 2 uM incubated for 24 hrs by western blot analysis; type: cell-based
[9] = molecular target: T2, Protein deacetylase HDAC6 (Homo sapiens); assay: Inhibition of HDAC6 in human NCI-H1975 cells assessed as increase in acetylation of alpha tubulin at 1 uM incubated for 24 hrs by western blot analysis; type: cell-based

Question: How did the GI50 [1] turn out when `CCCCN(Cc1ccc(C(=O)NO)cc1)C(=O)c1cc(Cl)c(O)cc1O` was run?
Answer: Its GI50 is 66.4 µM.

Question: And the pIC50 [2]?
Answer: Its pIC50 is 6.20.

Question: `CC(C)c1cc(C(=O)N(C)Cc2ccc(C(=O)O)cc2)c(O)cc1O` was tested. Which GI50 [1] did it give?
Answer: The GI50 was 30 µM.

Question: What does the source list for `CCCCN(Cc1ccc(C(=O)NO)cc1)C(=O)c1cc(C(C)C)c(O)cc1O`?
Answer: GI50 [1]: 23.6 µM; pIC50 [2]: 6.43

Question: Which results are given for `COC(=O)c1ccc(CN(C)C(=O)c2cc(C(C)C)c(O)cc2O)cc1`?
Answer: GI50 [1]: 3.5 µM; inhibition [3]: Active; inhibition [4]: Active; inhibition [5]: Active; inhibition [6]: Active; inhibition [7]: Active; inhibition [8]: Active

Question: Which results are given for `CCN(Cc1ccc(C(=O)NO)cc1)C(=O)c1cc(C(C)C)c(O)cc1O`?
Answer: GI50 [1]: 7 µM; pIC50 [2]: 6.66

Question: How did the GI50 [1] turn out when `CCCN(Cc1ccc(C(=O)NO)cc1)C(=O)c1cc(Cl)c(O)cc1O` was run?
Answer: The GI50 was 73.6 µM.

Question: And the pIC50 [2]?
Answer: The pIC50 was under 6.00.

Question: How did the GI50 [1] turn out when `CN(Cc1ccc(C(=O)NO)cc1)C(=O)c1cc(Cl)c(O)cc1O` was run?
Answer: Its GI50 is 68.8 µM.

Question: And the pIC50 [2]?
Answer: The pIC50 was 6.22.

Question: How did the inhibition [9] turn out when `COC1=C2C[C@@H](C)C[C@H](OC)[C@H](O)[C@@H](C)/C=C(\C)[C@H](OC(N)=O)[C@@H](OC)/C=C\C=C(/C)C(=O)NC(=CC1=O)C2=O` was run?
Answer: The inhibition was “Active”.

Question: How did the GI50 [1] turn out when `CCCN(Cc1ccc(C(=O)NO)cc1)C(=O)c1cc(C(C)C)c(O)cc1O` was run?
Answer: Its GI50 is 23.7 µM.

Question: What about the pIC50 [2] of the same compound?
Answer: Its pIC50 is 6.19.

Question: For `CCN(Cc1ccc(C(=O)NO)cc1)C(=O)c1cc(Cl)c(O)cc1O`, which GI50 [1] is on record?
Answer: Its GI50 is 13.2 µM.

Question: What about the pIC50 [2] of the same compound?
Answer: The pIC50 was 6.16.

Question: How did the GI50 [1] turn out when `CN(Cc1ccc(C(=O)NO)cc1)C(=O)c1ccccc1` was run?
Answer: Its GI50 is 8.2 µM.

Question: What about the pIC50 [2] of the same compound?
Answer: Its pIC50 is under 6.00.
